Laboratory results from US20060292203A1, “Methods and compositions for the treatment of ocular disorders” (TargeGen, Inc., priority 2005, published 2006).
In brackets after ≈: the same amount, converted by molar mass.

Key:
[1] = Water solubility (pH 5); conditions: for Water solubility: pH 5; for solubility: pH 5, water
[2] = Phospholipid affinity PC:Drug (molar); format: physicochemical; conditions: molar ratio PC:Drug
[3] = system: choroidal neovascularization; test: Laser-induced choroidal neovascularization model; format: in vivo, C57BL/6 mice; conditions: for Reduction of area of neovascularization compared to control: topical
Description: After 2 weeks, mice were perfused with fluorescein-labeled dextran, and choroidal flatmounts were analyzed using image analysis software to recognize fluorescently stained neovascularization and calculate the total area of neovascularization per retina.

[4] = Pharmacokinetic study of Compound (VI) after topical administration (Example 14); format: in vivo, Dutch-Belted rabbits; conditions: BID for three days vs QD for three days, 1% dose
Description: A formulation prepared as described in example 13 was used. Compound (VI) was administered topically (50 μL) to rabbits either as BID for three days or QD for three days dose regimen (1% dose).

[5] = system: VEGF-induced retinal permeability; test: Ocular model of retinal edema following eyedrops (Evans Blue albumin leakage); format: in vivo; conditions: mice
Description: Formulations prepared as described in Examples 20 and 21 were used in these studies. Topical eyedrops of Compound (V) (one time or three times a day), or Compound (VI) (single eye drop) were administered to mice. After 1-2 hr, VEGF was injected intravitreally into mouse eyes. An hour later Evans Blue dye was injected intravenously into the tail vein. About 4 hrs later animals were sacrificed, blood was collected and eyes were enucleated. VEGF-induced retinal permeability as measured by albumin leakage in the eye was measured.

[6] = Pharmacokinetic study of Compound (V) after topical administration (Example 4); format: in vivo, Dutch-Belted rabbits; conditions: 50 μL topical, 0.5% dose, QD for one day; rabbit
Description: A formulation containing Compound (V) prepared as described in Example 1 was used in this experiment. 50 μL of Compound (V) (QD for one day) was administered topically to rabbits at 0.5% dose. Ocular tissues such as choroid, retina, sclera and cornea were collected and concentrations measured. Choroidal concentrations were 4 fold higher than retinal concentration.

[7] = Pharmacokinetic study of Compound (XI) after topical administration (Example 3); format: in vivo, Dutch-Belted rabbits; conditions: eyedrops 1% API, 50 μL BID for 3 days; rabbit
Description: A formulation was prepared as in Example 1 but using Compound (XI) instead of Compound (V). Compound (XI) was administered as eyedrops (1% API, 50 μL) BID for 3 days. On day 3 following a single dose, rabbits were sacrificed, enucleated and various ocular tissues (retina, choroid, cornea, etc) collected. Concentrations in the tissues were measured using LC/MS/MS, following tissue homogenization and acetonitrile precipitation. PK data analysis was conducted using WINNONLIN program. […] Half-life was long at approximately 8 hours.

[8] = Pharmacokinetic study of Compound (VI) after topical administration (Example 8); format: in vivo, Lone Evans rat pups; conditions: Compound (V) analysed after single 10 μL eyedrops of 0.2, 0.5 or 1% Compound (VI)
Description: Formulations prepared as described in Example 5 were used. Rat pups were administered single 10 μL eyedrops of 0.2, 0.5 or 1% Compound (VI) dose. Eye tissues were collected at various time points for Compound (V) analysis using LC/MS/MS. […] Half-life of Compound (V) ranged from 5 to 8 hours in the choroids.

[9] = Pharmacokinetic study of Compounds (X) and (VIII) after topical administration (Example 12); format: in vivo, Dutch-Belted rabbits; conditions: Compound (V) after prodrug Compound (VIII) delivered topically to the eye
Description: Formulations prepared as described in Example 9 and 11 were used. Compounds (X) and (VIII) were administered as eyedrops (50 μL) either as QD for three days or BID for three days as the dose regimen.
The retinal concentrations varied depending on the formulation used. The cLogD at pH of 7.4 for Compound (VIII) is 0.14 while for Compound (X) is 3.54.

Compound | solubility ([1]; water) | also measured
CP(C)(=O)c1ccc(Nc2nc(C3CCCC3)nc3c2ncn3CCc2cccc(O)c2)cc1 [AP23464, reference compound] | – | Water solubility [1]: >0.1 mg/mL
COc1ccc(Cl)c(Nc2ncnc3cc(OCC4CCN(C)CC4)c(OC)cc23)c1 [AZM475271, reference compound] | < 100 µg/mL | Phospholipid affinity PC: Drug (molar) [2]: 50.73
CC(=O)Nc1nnc(S(N)(=O)=O)s1 [Acetazolamide, reference compound] | < 1000 µg/mL | –
Brc1c(NC2=NCCN2)ccc2nccnc12 [Brimonidine, reference compound] | > 2000 µg/mL | –
CC(C)CCC[C@@H](C)[C@H]1CC[C@H]2[C@@H]3CC=C4C[C@@H](O)CC[C@]4(C)[C@H]3CC[C@]12C [Cholesterol, reference compound] | < 1000 µg/mL | –
Cc1cccc(C)c1-c1cc(C)c2nc(Nc3ccc(OCCN4CCCC4)cc3)nnc2c1 [IV] | < 100 µg/mL | –
O=C(Nc1cnc(Nc2cccc(OCCN3CCCC3)c2)nc1)c1c(Cl)cccc1Cl [I] | < 100 µg/mL | –
Cc1cc(Nc2ncc3cc(-c4c(Cl)cccc4Cl)c(=O)n(C)c3n2)ccc1F [PD180970, reference compound] | – | Water solubility [1]: <<0.1 mg/mL
Cc1ccc(-c2nn(C(C)(C)C)c3ncnc(N)c23)cc1 [PP1, reference compound] | – | Water solubility [1]: <0.1 mg/mL
COc1cc(Nc2c(C#N)cnc3cc(OCCCN4CCN(C)CC4)c(OC)cc23)c(Cl)cc1Cl [SKI606, reference compound] | < 1000 µg/mL | –
CCN(CC)CCNC(=O)c1c(C)[nH]c(/C=C2\C(=O)Nc3ccc(F)cc32)c1C [Su11248, reference compound] | > 1000 µg/mL | –
CC1(C)O[C@@H]2C[C@H]3[C@@H]4CCC5=CC(=O)C=C[C@]5(C)[C@@]4(F)[C@@H](O)C[C@]3(C)[C@]2(C(=O)CO)O1 [TAA, reference compound] | – | Water solubility [1]: <0.1 mg/mL
C=CC[C@@H]1/C=C(\C)C[C@H](C)C[C@H](OC)[C@H]2O[C@@](O)(C(=O)C(=O)N3CCCC[C@H]3C(=O)O[C@H](/C(C)=C/[C@@H]3CC[C@@H](O)[C@H](OC)C3)[C@H](C)[C@@H](O)CC1=O)[C@H](C)C[C@@H]2OC [Tacrolimus, reference compound] | < 100 µg/mL | –
Cc1cc(-c2cc(O)ccc2Cl)cc2nnc(Nc3ccc(S(=O)(=O)NCCN4CCCC4)cc3)nc12 [VII] | < 100 µg/mL | –
Cc1cc(-c2cc(OC(=O)c3ccccc3)ccc2Cl)cc2nnc(Nc3ccc(OCCN4CCCC4)cc3)nc12 [VI] | < 100 µg/mL | Reduction of area of neovascularization compared to control ([3]; 50 μg per eye): approximately 47%; Reduction of area of neovascularization compared to control ([3]; 150 μg per eye): approximately 35%; Effect on choroidal neovascularization (FIG. 2) ([3]; topical administration): prevents choroidal neovascularization; Back of the eye concentrations, dependence on dose regimen [4]: linear; Inhibition of retinal leak ([5]; QD eyedrop administration): 100%
Cc1cc(-c2cc(O)ccc2Cl)cc2nnc(Nc3ccc(OCCN4CCCC4)cc3)nc12 [V] | < 100 µg/mL | Choroidal concentration relative to retinal concentration [6]: 4 fold; Half-life (comparison) [6]: about two times longer; Concentrations in the choroid [7]: at the μM level; Concentrations in the retina, dose dependence [8]: non-linear; Mean AUC in the choroid, dose dependence [8]: linear; Inhibition of retinal leak ([5]; QD eyedrop administration): 50%; Inhibition of retinal leak ([5]; TID eyedrop dosing): ~80%; Amount of API recovered from the retina and the choroid [9]: No measurable amount
Cc1cc(-c2cc(OP(=O)([O-])[O-])ccc2Cl)cc2nnc(Nc3ccc(OCCN4CCCC4)cc3)nc12.[Na+].[Na+] [XII] | < 100 µg/mL | –
CC(C)NCC(O)COc1cccc2ccccc12 (stereo not drawn) [propanolol, reference compound] | – | solubility [1]: ~100 µg/mL (≈ 386 µM)
Tropicamide [reference compound] | – | Water solubility [1]: <1 mg/mL

More lines, main results first:

solubility ([1]; water) | Compound | also measured
> 2000 µg/mL | Clc1ccc(Nc2nnc(Cc3ccncc3)c3ccccc23)cc1 [Vatalanib, reference compound] | Phospholipid affinity PC: Drug (molar) [2]: Not stable
< 100 µg/mL | Cc1cccc(C)c1-c1cc(C)c2nc(Nc3ccc(S(=O)(=O)NCCN4CCCC4)cc3)nnc2c1 [XIII] | –
< 100 µg/mL | Cc1ccc(C(=O)Oc2ccc(Cl)c(-c3cc(C)c4nc(Nc5ccc(OCCN6CCCC6)cc5)nnc4c3)c2)cc1 [XIX] | –
< 100 µg/mL | Cc1cc(-c2c(Cl)cccc2Cl)cc2nnc(Nc3ccc(OCCN4CCCC4)cc3)nc12 [XI] | –
< 100 µg/mL | Cc1cc(-c2cc(OC(=O)c3ccccc3)ccc2Cl)cc2nnc(Nc3ccc(S(=O)(=O)NCCN4CCCC4)cc3)nc12 [XVIII] | –
< 100 µg/mL | CC(=O)Oc1ccc(Cl)c(-c2cc(C)c3nc(Nc4ccc(OCCN5CCCC5)cc4)nnc3c2)c1 [XVII] | –
< 100 µg/mL | Cc1cc(-c2c(Cl)ccc(O)c2Cl)cc2nnc(Nc3ccc(S(=O)(=O)NCCN4CCCC4)cc3)nc12 [XVI] | –
< 100 µg/mL | Cc1cc(-c2cc(O)ccc2Br)cc2nnc(Nc3ccc(S(=O)(=O)NCCN4CCCC4)cc3)nc12 [XV] | –
< 100 µg/mL | Nc1nc(O)c2nc(-c3cccc(O)c3)c(-c3cccc(O)c3)nc2n1 [XXI] | –
< 100 µg/mL | Cc1cc(-c2cc(OC(=O)C(C)C)ccc2Cl)cc2nnc(Nc3ccc(OCCN4CCCC4)cc3)nc12 [XX] | –
< 100 µg/mL | Cc1cc(-c2cc(OC(=O)C(C)(C)C)ccc2Cl)cc2nnc(Nc3ccc(OCCN4CCCC4)cc3)nc12 [X] | –
